SMILES strings stand for the structures.

We go through six compounds from BindingDB's records for doi:10.1021/jm001111b (Louis Pasteur University, 2001).

The test can be described thus: Displacement of [3H]clonidine from imidazoline receptor I-1 of bovine chromaffin cell membranes. Background: Displacement assays read how much labelled ligand stays bound in the presence of the test substance.
As a reminder, the Ki is a dissociation constant, usually derived from enzyme kinetics or from competition with a known ligand. Low readings indicate higher affinity, high ones lower affinity. As for `CC1CC(NC(C2CC2)C2CC2)=NC1C` (stereo unspecified), the Ki is 537 nM.
Under `CCC1CCC(NC(C2CC2)C2CC2)=N1` (stereo unspecified) stands 170 nM; under `CC1CCC(NC(C2CC2)C2CC2)=N1` (stereo unspecified), 1580 nM; under `CC1CN=C(NC(C2CC2)C2CC2)C1` (stereo unspecified), 646 nM.
In the case of `C1COC(NC(C2CC2)C2CC2)=N1` [CHEBI:8862], the Ki was 74 nM.
Regarding `C1CN=C(NC(C2CC2)C2CC2)C1`, the Ki worked out at 513 nM.
